Several values for one entry are separate records, joined by “and”; a condition that tells them apart may be missing. Equal entries are not always repeated. Where a SMILES comes first, the peptide text is derived from it.
Test system: lipase
Assay: Lipase/lipolysis assay (EnzChek Lipase Substrate, quenched BODIPY-fatty acid conjugate) on stored human milk; for Lipase (RFU): test concentration or dose not given here

First: COC(=O)[C@@]1(C)CC[C@]2(C(=O)O)CC[C@]3(C)C(=CC[C@@H]4[C@@]5(C)C[C@H](O)[C@H](O[C@@H]6OC[C@@H](O[C@@H]7O[C@H](CO)[C@@H](O)[C@H](O)[C@H]7O)[C@H](O)[C@H]6O)[C@@](C)(CO)[C@@H]5CC[C@]43C)[C@@H]2C1 [Esculentoside A]
Second: COc1cc(C=CC(=O)O)cc(OC)c1OC [3,4,5-Trimethoxycinnamic acid]
The “Lipase (RFU)” value of the first is lower: 755.0304 RFU for the first, 1076.789 RFU for the second.

First: COc1ccc(-c2oc3c(OC)c(O)cc(O)c3c(=O)c2O)cc1 [Prudomestin]
Second: O=Cc1cc(O)c(O)c(O)c1 [Gallic aldehyde]
The “Lipase (RFU)” value of the first is lower: 894.1495 RFU for the first, 942.9255 RFU for the second.

First: O=C(/C=C/c1ccc(O)c(O)c1)O[C@@H]1C[C@@](O)(C(=O)O)C[C@@H](O)[C@@H]1O [Neochlorogenic acid]
Second: COc1cc(-c2oc3cc(OC)c(OC)c(O)c3c(=O)c2OC)ccc1O [Chrysosplenetin]
The “Lipase (RFU)” value of the first is lower: 1024.869 RFU for the first, 1129.025 RFU for the second.

Going from `CC(C)(C(=O)O)C(=O)O` [Dimethylmalonic acid] to `C[C@@H]1CCCCCCCCCCCCC(=O)C1` [Muscone], the “Lipase (RFU)” value falls from 890.7612 RFU to 696.5228 RFU.

Going from `NCC(=O)N1CCC[C@H]1C(=O)O` [Glycyl-L-Proline] (H-Gly-Pro-OH) to `COc1ccc(CC(=O)O)cc1O` [Isohomovanillic acid], the “Lipase (RFU)” value rises from 318.8964 RFU to 1060.172 RFU.

Going from `O=C(O)[C@H]1O[C@@H](Oc2cc(O)c3c(=O)cc(-c4ccc(O)c(O)c4)oc3c2)[C@H](O)[C@@H](O)[C@@H]1O` [Luteolin 7-O-glucuronide] to Lignin, the “Lipase (RFU)” value falls from 995.7867 RFU to 849.2641 RFU.

First: O=C(O)/C=C(\CC(=O)O)C(=O)O [trans-Aconitic acid]
Second: O=C(O)[C@H]1O[C@@H](Oc2c(-c3ccc(O)cc3)oc3cc(O)cc(O)c3c2=O)[C@H](O)[C@@H](O)[C@@H]1O [Kaempferol 3-O-β-D-glucuronide]
The “Lipase (RFU)” value of the first is lower: 946.0721 RFU for the first, 1023.998 RFU for the second.

Compared with `CC(C)C[C@H](NC(=O)CN)C(=O)O` [Glycyl-L-leucine], `CC(C)=CCC[C@](C)(O[C@@H]1O[C@H](CO[C@@H]2O[C@H](CO)[C@@H](O)[C@H](O)[C@H]2O)[C@@H](O)[C@H](O)[C@H]1O)[C@H]1CC[C@]2(C)[C@@H]1[C@H](O)C[C@@H]1[C@@]3(C)CC[C@H](O[C@@H]4O[C@H](CO)[C@@H](O)[C@H](O)[C@H]4O[C@@H]4O[C@H](CO)[C@@H](O)[C@H](O)[C@H]4O)C(C)(C)[C@@H]3CC[C@]12C` [Ginsenoside Rb1] is higher in “Lipase (RFU)” value: 829.1827 RFU for the first, 830.8489 RFU for the second.

Going from `CC1=CC(=O)CC(C)(C)[C@@]1(O)/C=C/C(C)=C\C(=O)O` [Abscisic acid] to `N[C@@H](CS)C(=O)NCC(=O)O` [L-Cysteinyl-Glycine], the “Lipase (RFU)” value falls from 1087.943 RFU to 708.9877 RFU.

First: O=C(O)CCCC(=O)O [Glutaric acid]
Second: COc1cc(O)c2c(=O)c(-c3ccc(O)cc3)coc2c1 [Prunetin]
The “Lipase (RFU)” value of the first is higher: 944.8681 RFU for the first, 865.5495 RFU for the second.

Going from `O=c1c(O[C@@H]2O[C@H](CO)[C@@H](O)[C@H](O)[C@H]2O[C@@H]2O[C@H](CO)[C@@H](O)[C@H](O)[C@H]2O)c(-c2ccc(O)cc2)oc2cc(O)cc(O)c12` [Kaempferol 3-O-sophoroside] to `Cl.Cl.NCCCCN` [1,4-Diaminobutane (dihydrochloride)], the “Lipase (RFU)” value falls from 867.3846 RFU to 865.534 RFU.

First: CCCCCCCCCCCCCC(=O)OC[C@H](COP(=O)(O)OCCN)OC(=O)CCCCCCCCCCCCC
Second: CC(=O)NCCCCNCCCN.Cl.Cl [N8-Acetylspermidine dihydrochloride]
The “Lipase (RFU)” value of the first is higher: 805.4396 RFU for the first, 781.9265 RFU for the second.

Compared with `COc1cc2ccc(=O)oc2c2ccoc12` [Sphondin], D-Pantothenic acid (hemicalcium salt) is higher in “Lipase (RFU)” value: 913.6372 RFU for the first, 932.4036 RFU for the second.

First: NC(N)=NCCCC[C@H](N)C(=O)O [H-HoArg-OH]
Second: CC(C)=CCC[C@](C)(O[C@@H]1O[C@H](CO[C@@H]2OC[C@H](O)[C@H](O)[C@H]2O)[C@@H](O)[C@H](O)[C@H]1O)[C@H]1CC[C@]2(C)[C@@H]1[C@H](O)C[C@@H]1[C@@]3(C)CC[C@H](O[C@@H]4O[C@H](CO)[C@@H](O)[C@H](O)[C@H]4O[C@@H]4O[C@H](CO)[C@@H](O)[C@H](O)[C@H]4O)C(C)(C)[C@@H]3CC[C@]12C [Ginsenoside Rb2]
The “Lipase (RFU)” value of the first is lower: 745.4822 RFU for the first, 872.7793 RFU for the second.

Going from `OC[C@H]1OC(O)[C@H](O)[C@@H](O)[C@@H]1O` (stereo partly drawn) [D--Glucose] to `C[C@H](O)[C@H](O)c1cnc2nc(N)[nH]c(=O)c2n1` [Compound 6-Biopterin], the “Lipase (RFU)” value rises from 992.2563 RFU to 1286.983 RFU.

First: O=C(O)CCCCC1CCSS1 (stereo not drawn) [Lipoic acid]
Second: CC1(C)CC[C@]2(C(=O)O[C@@H]3O[C@H](CO)[C@@H](O)[C@H](O)[C@H]3O)CC[C@]3(C)C(=CC[C@@H]4[C@@]5(C)CC[C@H](O[C@@H]6O[C@H](C(=O)O)[C@@H](O[C@@H]7O[C@@H](CO)[C@H](O)[C@H]7O)[C@H](O)[C@H]6O)C(C)(C)[C@@H]5CC[C@]43C)[C@@H]2C1 [Araloside A]
The “Lipase (RFU)” value of the first is higher: 1146.052 RFU for the first, 938.5227 RFU for the second.

First: Elemicin
Second: CC1(C)[C@@H](O)CC[C@]2(C)[C@H]3C(=O)C=C4[C@@H]5C[C@@](C)(C(=O)O)CC[C@]5(C)CC[C@@]4(C)[C@]3(C)CC[C@@H]12 [18β-Glycyrrhetinic acid]
The “Lipase (RFU)” value of the first is higher: 1009.834 RFU for the first, 736.3555 RFU for the second.

Compared with `C=C(CO)C(=O)O[C@H]1CC(=C)[C@@H]2C[C@H](O)C(=C)[C@@H]2[C@H]2OC(=O)C(=C)[C@@H]21` [Cynaropicrin], `O=C(c1ccccc1)C(O)c1ccccc1` (stereo not drawn) [Benzoin] is lower in “Lipase (RFU)” value: 1182.791 RFU for the first, 968.9971 RFU for the second.

Compared with `NCC[C@H](N)C(=O)O` [L-DABA], Alliin is higher in “Lipase (RFU)” value: 650.1144 RFU for the first, 782.3552 RFU for the second.

Going from `C[C@H](CCC(=O)O)[C@H]1CC[C@H]2[C@@H]3CC[C@H]4C[C@@H](O)CC[C@]4(C)[C@H]3CC[C@]12C` [Isoallolithocholic acid] to `O=C[C@@H](O)[C@H](O)[C@H](O)CO` [Arabinose], the “Lipase (RFU)” value rises from 881.405 RFU to 1341.366 RFU.

Going from Ursolic acid acetate to `CC(O)C(=O)[O-].CC(O)C(=O)[O-].[Ca+2]` (stereo not drawn) [Lactate (calcium)], the “Lipase (RFU)” value falls from 811.3971 RFU to 763.893 RFU.

Compared with `C[S+]([O-])CCCC/C(=N\OS(=O)(=O)O)S[C@@H]1O[C@H](CO)[C@@H](O)[C@H](O)[C@H]1O` (stereo partly drawn) [Glucoraphanin], `O=c1c(O[C@@H]2O[C@H](CO[C@@H]3O[C@H](CO)[C@@H](O)[C@H](O)[C@H]3O)[C@@H](O)[C@H](O)[C@H]2O)c(-c2ccc(O)c(O)c2)oc2cc(O)cc(O)c12` [Quercetin 3-gentiobioside] is lower in “Lipase (RFU)” value: 983.9092 RFU for the first, 676.8795 RFU for the second.

Compared with `COc1cc(COC(=O)CCCC/C=C/C(C)C)ccc1O` [Capsiate], `CC1(C)S[C@@H]2[C@H](NC(=O)[C@H](N)c3ccc(O)cc3)C(=O)N2[C@H]1C(=O)[O-].[Na+]` [Amoxicillin (sodium)] is higher in “Lipase (RFU)” value: 1078.823 RFU for the first, 1082.26 RFU for the second.

First: Nc1ncnc2c1ncn2C1OC(CO)C2OP(=O)(O)OC21 (stereo not drawn) [Adenosine-2′,3′-cyclic monophosphate]
Second: CCCCCCCCCC(C)=O [Compound 2-Undecanone, 2-Undecanone]
The “Lipase (RFU)” value of the first is lower: 828.2019 RFU for the first, 1119.854 RFU for the second.

Going from `COc1cc([C@@H]2Oc3c(O)cc([C@H]4Oc5cc(O)cc(O)c5C(=O)[C@@H]4O)cc3[C@H]2CO)ccc1O` [Silychristin] to (−)-Epigallocatechin, the “Lipase (RFU)” value rises from 921.666 RFU to 928.0708 RFU.

Compared with `CC(C)=CCc1c(O)cc2oc3cc(O)c(O)c(CC=C(C)C)c3c(=O)c2c1O` [Gamma-Mangostin], `O=C(C=Cc1ccc(O)c(O)c1)OC1CC(O)(C(=O)O)CC(O)C1OC(=O)C=Cc1ccc(O)c(O)c1` (stereo not drawn) [4,5-Dicaffeoylquinic acid] is lower in “Lipase (RFU)” value: 1083.745 RFU for the first, 1065.884 RFU for the second.

Compared with `CC(C)[C@H](C)CC[C@@H](C)[C@H]1CC[C@H]2[C@@H]3CC=C4C[C@@H](O)CC[C@]4(C)[C@H]3CC[C@]12C` [Campesterol], `OC[C@H]1O[C@H](OC[C@H]2O[C@H](O[C@H]3[C@H](O)[C@@H](O)C(O)O[C@@H]3CO)[C@H](O)[C@@H](O)[C@@H]2O)[C@H](O)[C@@H](O)[C@@H]1O` (stereo partly drawn) [D-Panose] is higher in “Lipase (RFU)” value: 912.1206 RFU for the first, 982.4149 RFU for the second.

Compared with `Nc1nc2c(ncn2[C@H]2C[C@H](O)[C@@H](CO)O2)c(=O)[nH]1.O` [2′-Deoxyguanosine monohydrate], `C[C@H](N)C(=O)NCC(=O)O` [L-Alanyl-Glycine] (H-Ala-Gly-OH) is higher in “Lipase (RFU)” value: 782.4513 RFU for the first, 816.3246 RFU for the second.

Going from `N[C@@H](CCC(=O)N[C@@H](CSN=O)C(=O)NCC(=O)O)C(=O)O` [Nitrosoglutathione] to `CC(C)C(=O)O[C@H](CC(=O)O)C[N+](C)(C)C.[Cl-]` [Isobutyryl-L-carnitine (chloride)], the “Lipase (RFU)” value rises from 688.3783 RFU to 1069.653 RFU.

For `NCC(=O)N1CCC[C@H]1C(=O)O` [Glycyl-L-Proline] (H-Gly-Pro-OH), the “Hit in lipase inhibition screen (in words)” value was “significantly inhibited lipase activity”.

In the case of `CCCCCCCC(=O)CCc1ccc(O)c(OC)c1` [Paradol], the “Lipase (RFU)” value is reported as 1060.26 RFU and 1109.933 RFU.
With `NC(=O)NCCC[C@H](N)C(=O)O` [L-Citrulline] the “Lipase (RFU)” value was 1167.04 RFU and 809.9531 RFU.
In the case of `CC1=CC(=O)CC(C)(C)C1=O` [Ketoisophorone], the “Lipase (RFU)” value is reported as 818.3204 RFU and 1086.358 RFU.
`N#C[C@H](O[C@@H]1O[C@H](CO[C@@H]2O[C@H](CO)[C@@H](O)[C@H](O)[C@H]2O)[C@@H](O)[C@H](O)[C@H]1O)c1ccccc1` [Amygdalin] was tested, and the “Lipase (RFU)” value was 1036.373 RFU and 736.6201 RFU.

Reference: patent US12507703B2, “Methods, devices and compositions for preserving human milk” (The Trustees of Princeton University, priority 2023, dated 2025)
